Source: publication PMC10049354, “Anti-Inflammatory Effects and Photo- and Neuro-Protective Properties of BIO203, a New Amide Conjugate of Norbixin, in Development for the Treatment of Age-Related Macular Degeneration (AMD)” (International Journal of Molecular Sciences, 2023)

Legend:
[1] = tested on: primary porcine RPE cells; experiment: RPE phototoxicity: photoprotection of RPE cells exposed to A2E and blue light; type: cell-based, pig; settings: A2E 30 μM + blue-light illumination
Method: RPE cells were obtained from pig eyes, as previously described. RPE cells were seeded on a 96-well plate at a density of 1.5 × 10^5 cells/cm^2 in DMEM 2% FCS. BIO201, BIO203, or its pure enantiomers were added in increasing concentrations to the culture medium 48 h before illumination. A2E was added to the medium at a final concentration of 30 μM, and 19 h later, blue-light illumination was performed for 50 min using a 96 blue-led device (Durand, St Clair de la Tour, France) emitting at 470 nm (1440 mcd, 8.6 mA). Just before illumination, the culture medium was replaced by a modified DMEM without any photosensitizer and with 2% FCS. Twenty-four hours after blue-light irradiation, all cell nuclei were stained with Hoechst 33342, and nuclei of dead cells with ethidium homodimer 2, fixed with paraformaldehyde (4% in PBS, 10 min) and 9 pictures per well were captured using a fluorescence microscope (Nikon TiE) equipped with a CoolSNAP HQ2 camera and driven by Metamorph Premier On-Line program. Quantification of live cells was performed using Metamorph Premier Off-Line and a homemade program by subtraction of dead cells from all cells. For cytokines mRNA analysis, RPE cells were seeded in 24-well plates and left untreated or treated with A2E or BIO203 alone or A2E plus BIO203. After 48 h, cells were lysed using the lysis buffer from the NucleoSpin® RNA kit, and the samples were stored at −80 °C.

[2] = tested on: albino rats exposed to blue-light-induced photoreceptor degeneration; experiment: Blue-light damage (BLD) study in albino rats: ERG; type: in vivo, rat; settings: for effect on visual function (ERG A-wave and B-wave): four IP administrations; for efficacy dose in the rat model of BLD: IP
Method: (§1) The ERG in rats was performed using the electrophysiological system RETI-animal® from Roland Consult. ERG was recorded on both eyes from overnight dark-adapted animals. Rats were anesthetized by an intramuscular injection of a mix of Rompun® (xylazine)/Imalgene® (ketamine) before ERG measurement. Ten to fifteen minutes before measurement, one drop of Mydriaticum® (0.5% tropicamide) was instilled for pupillary dilatation. The A-wave and B-wave implicit times (ms) and amplitudes (µV) were measured for each ERG. The B-wave amplitude (value and %) was given as informative data. ERG parameters: Ganzfeld Q450C, Color: white maximum, Maximum intensity: 3 cd/m^2 (0 dB); Duration 0.24 ms; number of flashes: 1, Filter: 50 Hz, Impedance threshold: 50 kΩ. For scotopic ERGs, the A-wave amplitudes were measured from the baseline to the peak of the negative potential, whereas B-wave amplitudes were measured from the trough of the A-wave to the peak of the positive potential. The recordings obtained from these analyses were tabulated and normalized (%) for each eye. Group means, standard deviation, and median values were calculated, considering each eye from one animal as a separate value. ERG recordings in mice were performed as previously described.
Sixty-four animals were selected based on good health and on scotopic electroretinogram performed before induction when the A-wave amplitude of both eyes was in the range of the global mean (all animals) of A-wave amplitude ± 1.96 SD. Animals were then randomized into the study groups using a macro function in Excel® software based on the A-wave amplitude of both eyes (mean value). On Day 0, BIO203, negative controls, and comparator (N-tert-Butyl-a-phenylnitrone (PBN)) were intraperitoneally injected using a 25 G needle in rats that have been dark-adapted for 36 h. Individually housed rats were then exposed for 6 h (±5 min) to a continuous blue, fluorescent light (400–540 nm) in clear plastic cages. After exposure and administration, the rats were placed in a dark room for 24 h (±1 h) and then were returned to rearing cyclic light conditions.

Abca4−/− Rdh8−/− mice [3] = experiment: ERG after 6 months of oral complementation in Abca4−/− Rdh8−/− mice; type: in vivo, mouse
Method: as §1
(§2) A custom rodent diet was formulated and irradiated (25 kGy) by Envigo RMS SARL (Gannat, France). Low dose (LD)-BIO203 (50 μg/g) and high dose (HD)-BIO203 (500 μg/g) were incorporated into Teklad Custom Research Diet 2016© pellets. The pellets were stored at −20 °C until use and were administered ad libitum as the standard Teklad Global Rodent Diet 2016© used for the control group. The concentration of BIO203 in the customized pellets at the end of each batch was determined by HPLC MS/MS. The mean concentration was 46 μg/g ± 3.5 μg/g of pellet for the LD and 464 μg/g ± 24.3 μg/g of pellet for the HD. We calculated that in the LD group, male mice weighing 31.63 g after 2 months of complementation consumed 4.16 g of pellets, and in the HD group, male mice weighing 34.11 g after 2 months of complementation consumed 4.11 g of pellets every day, which correspond to a daily dose of 6.04 ± 0.46 mg/kg for the LD-BIO203 pellets and 55.91 ± 2.93 mg/kg for the HD-BIO203 pellets.
To test the preventive/curative action of oral administration of BIO203 against retinal neurodegeneration, a total of 27 Pigmented Abca4^−/− Rdh8^−/− mice carrying the Rpe65-Leu450 mutation and the rd8 mutation in the Crb1 gene from Case Western Reserve University of eleven to twelve months of age were used. […] After 6 months of complementation, ERG was measured in both eyes. […] In each group, half of the eyes were removed for A2E and BIO203 measurements, and half of the eyes were used for histological analyses and photoreceptor layer quantification.

Abca4−/− Rdh8−/− mice [4] = experiment: Photoreceptor nuclear layer thickness after 6 months of oral complementation in Abca4−/− Rdh8−/− mice; type: in vivo, mouse; settings: HD pellets, 17-month-old mice
Method: At the end of the measurement period on Day 7, rats were euthanized by an intraperitoneal injection of pentobarbital. Immediately after euthanasia, both eyeballs were sampled, fixed in Davidson’s solution, and processed for histology. Sections (5 to 7 µm thick) were performed along the vertical meridian and stained with Haematoxylin/Eosin stain. The vertical meridian included the optic nerve. […] The thickness of the outer nuclear layer was measured on each point. […] Histology and photoreceptor counting in mice were performed as previously described.
as §2, with “pellets. […]” for “pellets. The pellets were stored at −20 °C until use and were administered ad libitum as the standard Teklad Global Rodent Diet 2016© used for the control group.”, “MS/MS. […]” for “MS/MS. The mean concentration was 46 μg/g ± 3.5 μg/g of pellet for the LD and 464 μg/g ± 24.3 μg/g of pellet for the HD.”, “pellets. […]” for “pellets.”

Abca4−/− Rdh8−/− mice [5] = experiment: A2E quantification in eyes of Abca4−/− Rdh8−/− mice (HPLC-MS/MS); type: in vivo, mouse; settings: 6 months
Excerpt: To test the preventive/curative action of oral administration of BIO203 against retinal neurodegeneration, a total of 27 Pigmented Abca4^−/− Rdh8^−/− mice carrying the Rpe65-Leu450 mutation and the rd8 mutation in the Crb1 gene from Case Western Reserve University of eleven to twelve months of age were used. Three groups of 9 males received control chow (Teklad Custom Research Diet 2016© pellets) or chow containing LD-BIO203 or HD-BIO203 orally for 6 months. After 6 months of complementation, ERG was measured in both eyes. In the control group, two mice died during the period of complementation and one mouse during ERG measurement. In the HD-BIO203 group, one mouse died before the end of complementation, and 3 mice died just after anesthesia. All the mice that received LD-BIO203 were alive until the end of the complementation. One of them died during the photopic ERG measurement. Blood was collected by submandibular puncture in all mice before being euthanized. In each group, half of the eyes were removed for A2E and BIO203 measurements, and half of the eyes were used for histological analyses and photoreceptor layer quantification.
A2E quantification in eyes was performed using the HPLC-MS/MS method, which has been described previously.

VEGF = tested on: VEGF; set-up: method as in PMID 34544906; settings: norbixin at 20 mM (so in the source); cited from earlier work

SMILES	concentration from which protective effect was observed [1] [µM]	concentration of maximum efficacy / highest protection [1] [µM]	effect on visual function (ERG A-wave and B-wave) ([2]; 5 mg/kg, ERG 7 days after blue light)	effect on visual function (ERG A-wave and B-wave) ([2]; 10 mg/kg, ERG 7 days after blue light)	effect on visual function (ERG A-wave and B-wave) ([2]; 25 mg/kg, ERG 7 days after blue light, p < 0.0001)	efficacy dose in the rat model of BLD [2] [mg/kg]	photopic B wave ERG compared with control pellets (Abca4−/− Rdh8−/− mice [3]; HD pellets)	scotopic A wave ERG compared with control pellets (Abca4−/− Rdh8−/− mice [3]; HD pellets, flash intensities 1 and 10 cd.s/m^2, p < 0.05)	scotopic B wave ERG compared with control pellets (Abca4−/− Rdh8−/− mice [3]; HD pellets, flash intensity 30 cd.s/m^2, p < 0.05)	effect on the visual function (ERG) (Abca4−/− Rdh8−/− mice [3]; LD pellets)	thickness of the photoreceptor nuclear layer compared with LD or control pellets (Abca4−/− Rdh8−/− mice [4])	change of A2E concentration in the retinas compared with control pellets (Abca4−/− Rdh8−/− mice [5]; HD pellets, not significant, p = 0.407) [%]	amount of ocular A2E compared with control pellets (Abca4−/− Rdh8−/− mice [5]; LD pellets)	survival of RPE cells ([1]; 20 μM compound)	effect on visual function (ERG A-wave and B-wave) ([2]; 50 mg/kg, positive controls)	effect on VEGF mRNA expression (VEGF)
COC1CCCN(C(=O)/C=C/C(C)=C/C=C/C(C)=C/C=C/C=C(C)/C=C/C=C(C)\C=C\C(=O)O)C1 (stereo not drawn) [BIO203]	≥ 10	15	no significant effect	no significant effect	protective effect	25	no significant difference	significantly superior	reduced the loss	No effect	No difference	−21.7	did not differ significantly	–	–	–
CC(=C/C=C/C(C)=C/C=C/C=C(C)/C=C/C=C(C)/C=C/C(=O)O)/C=C/C(=O)O [norbixin, 9′-cis-norbixin]	–	20	–	–	–	50	–	–	–	–	–	–	–	more than 80%	protected the visual functions	significantly reduced
